# Results: US9526721B2, “Tetrahydroprotoberbine compounds and uses thereof in the treatment of neurological, psychiatric and neurodegenerative diseases” (priority 2012, dated 2016)
# Where two headings read alike, the source gives them in different places. Marks after values point to notes of the source that are not given here.
# What was measured:
# D2L [1] = target: T1, D2L (Homo sapiens, UniProt P14416); conditions: Xu, S. X. et al., 1989; comparison ligand 0.16 nM Spiperone; cited from earlier work
# T1 construct: host or cells: CHO cells
# T1 sequence (P14416 whole entry): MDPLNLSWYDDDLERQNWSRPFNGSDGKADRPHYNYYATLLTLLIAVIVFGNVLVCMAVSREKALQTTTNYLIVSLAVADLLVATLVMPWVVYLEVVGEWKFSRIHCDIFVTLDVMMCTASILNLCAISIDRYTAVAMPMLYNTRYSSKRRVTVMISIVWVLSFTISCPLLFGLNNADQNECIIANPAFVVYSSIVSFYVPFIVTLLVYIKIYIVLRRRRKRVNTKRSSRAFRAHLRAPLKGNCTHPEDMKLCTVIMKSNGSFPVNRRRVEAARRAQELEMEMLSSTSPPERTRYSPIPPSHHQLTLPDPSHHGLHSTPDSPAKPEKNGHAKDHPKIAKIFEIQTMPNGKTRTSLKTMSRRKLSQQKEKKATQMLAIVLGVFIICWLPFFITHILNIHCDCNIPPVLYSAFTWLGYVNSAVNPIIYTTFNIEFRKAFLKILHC
# rats [2] = conditions: Natesan et al., 2008; cited from earlier work
# D1 [3] = target: T2, D1 (Homo sapiens, UniProt P21728); conditions: read-out: D1 (Ki); Xu, S. X. et al., 1989; comparison ligand 0.14 nM SCH-23390; cited from earlier work
# T2 sequence (P21728 whole entry): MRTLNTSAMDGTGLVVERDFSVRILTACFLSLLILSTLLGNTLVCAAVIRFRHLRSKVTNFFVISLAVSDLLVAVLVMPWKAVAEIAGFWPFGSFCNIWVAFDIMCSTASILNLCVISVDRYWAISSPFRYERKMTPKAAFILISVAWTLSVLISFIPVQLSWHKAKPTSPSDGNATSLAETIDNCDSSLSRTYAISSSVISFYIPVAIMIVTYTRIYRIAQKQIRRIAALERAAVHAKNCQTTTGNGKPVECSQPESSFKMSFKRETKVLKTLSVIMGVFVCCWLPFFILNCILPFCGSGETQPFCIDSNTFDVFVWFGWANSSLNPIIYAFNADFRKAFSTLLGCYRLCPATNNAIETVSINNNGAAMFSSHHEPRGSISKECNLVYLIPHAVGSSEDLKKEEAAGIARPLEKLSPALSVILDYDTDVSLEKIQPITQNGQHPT
# rats [4] = conditions: Natesan et al., 2008; listed as 1-SPD; cited from earlier work
# D1/D2 [5] = conditions: cited from earlier work
# rats [6] = conditions: Natesan et al., 2008; cited from earlier work; remark: listed apart in the source
# Catalepsy (bar test) = format: in vivo, rat; conditions: rat, in vivo; present data; SC, 45 min time point
# Protocol: (§1) Testing occurred in a plexiglas box (28 cm×45 cm×20 cm) containing a horizontal steel bar located 8 cm above floor level. […] After injection animals were returned to the test box and catalepsy testing occurred at 1, 15, 30, and 45 minutes after injection. Testing at each time point lasted 2 min after the forepaws of each rat was placed on the bar. Behavior was recorded with a video camera (Cohu, Poway, Calif.) and scored off-line. The cumulative time spent immobilized with both forelimbs on the horizontal bar was scored for each 2 min test epoch. Videos selected at random were scored independently by a second observer and a high inter-rater reliability was observed (R^2=0.93, F=393.4, p<0.05).
# (§2) Catalepsy testing was conducted as described in Example 12.
# rats [7] = experiment: Catalepsy (bar test); format: in vivo, rat
# Protocol: as §1, §2
# rats [8] = experiment: Microdialysis of prefrontal cortex and nucleus accumbens;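 note: dialysate collected every 10 min from freely moving rats, analysed by HPLC with electrochemical detection, after four stable baseline samples (under 10% variation) preceding drug dosing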
# Protocol: Rats received subcutaneous injections of an analgesic (ketoprofen 0.05 mL or buprenorphine, 0.1 mL) and sterile saline (0.9% NaCl, ˜3 mL). Once shaved and cleaned, the heads were secured in the stereotaxic frame in flat skull position for bilateral implantation of stainless steel microdialysis guide cannulae (19 gauge×15 mm) in the nucleus accumbens (NAc) (from bregma +1.7 mm anterior and ±1.1 mm medial; from dura −1.0 mm ventral) or medial prefrontal cortex (mPFC) (+3.0 mm anterior, ±0.6 mm medial; −1.0 mm ventral). […] Rats were allowed to rest with heat support until they regained consciousness, and then given a one-week recovery period.
# Microdialysis probes were assembled 1-2 days prior to microdialysis experiments. Probes were concentric in design, constructed from Filtral 12 AN69HF semi-permeable hollow fibres (2 mm length, 340 μm OD×4 mm, 65 kDalton molecular weight cut-off; Hospal, Neurnberg, Germany) and silica inlet-outlet lines (75/150 um ID/OD).
# The day prior to microdialysis experiments, probes were connected to an Instech dual-channel liquid swivel (Plymouth Meeting, Pa.) and flushed with artificial cerebrospinal fluid (aCSF). […] Following DA recovery tests, probes were implanted via the guide cannulae (dialysis membrane spanned −4.8 to −6.8 mm ventrally for NAc; −1.6 to −3.6 mm for mPFC). Rats remained in the testing chamber overnight (14-16 hr) with aCSF perfusing continuously through the probes at 1 μL/min In the morning, microdialysis samples were collected at 10 min intervals and assayed for DA, DOPAC, homovanillic acid (HVA) and 5-HIAA content. Once baseline levels were determined to be stable for four consecutive samples (less than 10% fluctuation), the drug treatment phase of each experiment was initiated.
# Microdialysis samples were analyzed immediately after collection using high pressure liquid chromatography (HPLC) with electrochemical detection. […] The mobile phase [70 mM sodium acetate buffer, 40 mg/L EDTA and 50 mg/L of sodium dodecyl sulfate (adjustable), pH 4.0, 10% methanol] flowed through the system at 0.17 mL/min EZChrome Elite software (Scientific Software, Pleasanton, Calif.) was used to acquire and analyze chromatographic data.
# After the experiments, rats were deeply anesthetized, brains were removed and stored in 20% w/v sucrose and 4% v/v paraformaldehyde. Brains were sliced into 50 um coronal sections, stained with cresyl violet and examined for probe placement.
# Microdialysis probes (2 mm active membrane) were implanted in the NAc and mPFC ˜16 hrs prior to start of the experiment and continuously perfused aCSF.
# rats [9] = experiment: Amphetamine-induced locomotion (AIL); conditions: Rattus norvegicus, ip, 1 h, read-out: AIL (ED50)
# Protocol: Animals were habituated to the locomotor arena for 1 hr on 4 consecutive days prior to testing. Locomotor activity was assessed on day 1 of habituation and treatment groups were assigned in a counter balanced fashion depending on locomotor activity on this day.
# After d-AMPH/SAL injection, distance travelled was assessed for 1 hr. Distance travelled was recorded with Noldus Ethovision XT (Noldus, Leesburg, Va.) and analyzed off-line.
# Amphetamine induced locomotion (AIL): Animals were habituated to locomotor arenas for 1 hr on 4 consecutive days prior to testing. Locomotor activity was assessed on day 1 of habituation and treatment groups were assigned in a counter-balanced manner determined by distance traveled on day 1. […] Distance traveled was recorded with Noldus Ethovision XT (Noldus, Leesburg, Va.) and analyzed off-line.
# rats [10] = experiment: Conditioned avoidance responding (CAR)
# Protocol: Conditioned avoidance responding (CAR) was performed in a two-way avoidance procedure with drug naive rats in four shuttle boxes (Med Associates, Vt., USA) each consisting of two compartments separated by an open door. Each compartment contained a wall-mounted speaker, house light and 5 photocells to detect the location of the animal. All experimental protocols and data acquisition were controlled by custom programs written in MED-PC.
# Before training, each animal received two acclimation sessions lasting 30 min with only the house light illuminated. […] Pairings of the conditioned stimulus (CS) (white noise, ˜60 dB) and the unconditioned stimulus (US) (footshock, 0.75 mA) were presented at random intervals with a mean of 60 sec. The CS was presented for 10 sec. During this time, if the animal moved to the opposite side of the box, the white noise was silenced, no foot shock delivered, and an avoidance response was scored. Upon termination of the 10 sec tone, if the animal had not moved to the opposite side of the box, a foot-shock was administered for 2 sec. […] Failure to avoid or escape constituted a response failure and was scored accordingly. After reaching a criterion of 90% avoidances for a block of 20 trials, usually achieved with ˜100 CS-US pairings, each animal advanced to the drug-testing phase. Animals not meeting the criterion by 120 pairings were excluded from the study.
# Pairings were presented just as during training and were scored in the same fashion. The test trial consisted of 100 CS-US pairings.
# rats [11] = experiment: Latent inhibition; format: in vivo, rat
# Protocol: Sensitization: Animals were removed from the colony and taken to a holding room where they received either IP d-AMPH or saline every Monday, Wednesday, and Friday. Doses started at 1 mg/kg and increased 1 mg/kg each week over 5 weeks to 5 mg/kg. 25 days after the induction phase, behavioral sensitization was assessed over 3 days in locomotor chambers (plexiglass box, 40 cm×40 cm×40 cm) where speed and distance traveled were recorded using Noldus Ethovision XT (Noldus, Leesburg, Va.). The first day consisted of a 2 hr acclimation session, and prior to counter balanced injections of either 0.5 mg/kg d-AMPH or saline on days 2 and 3 animals were acclimated for 1 hr. Experiments were run in two separate cohorts of 30 animals to minimize the time between testing sensitization and LI.
# Latent Inhibition: LI tests were performed in rats treated with 1.0 mg/kg acute d-AMPH, sensitized rats, and drug-naive rats. LI testing began 5 days post-challenge of the escalating dose regime. Animals in both conditions (chronic saline or sensitized) were randomly assigned to either non-pre-exposed (NPE) or pre-exposed (PE) groups. Testing took place over 3 consecutive days. […] Animals in the PE group received 50 presentations of the CS (10 sec duration) per day at a variable interval for the first two days. Animals in the NPE group were placed in the chamber for an equal time as the PE animals. Conditioning (COND) consisted of 100 CS-US pairings. Latency to cross into the other compartment and the number of total beam breaks were recorded. Drug-naïve animals receiving acute 1.0 mg/kg AMPH were injected IP 45 min before the COND trial.
# The effects of the two individual enantiomers of govadine on latent inhibition (LI) were also tested as described in Example 12.
# D1 [12] = target: T2, D1; experiment: Receptor binding, dopamine D1; design: host or cells: CHO cells; conditions: present data; comparison ligand 0.14 nM SCH-23390; read-out: D1 (Ki)
# Protocol: (§3) All receptors tested were heterologously expressed CHO cells and IC50 values were determined by a non-linear, least squares regression analysis using MathIQ (ID Business Solution Ltd, UK). Ki was calculated using the equation of Cheng and Prusoff (1973, Biochem. Pharmacol 22:23099-3108) derived from the observed IC50 of the tested compound, the concentration of radioligand employed in the assay, and the historical values for the Kd of the ligand (obtained experimentally at MDS Pharma Services).
# as §3, with “receptors” for “receptors tested”, “UK). K1” for “UK). Ki”, “calculated (Y.” for “calculated using the equation of”, “Cheng &” for “Cheng and”, “Prusoff 1973)” for “Prusoff (1973, Biochem. Pharmacol 22:23099-3108) derived”
# D2L [13] = target: T1, D2L; experiment: Receptor binding, dopamine D2L; conditions: present data; comparison ligand 0.16 nM Spiperone; read-out: D2L (Ki)
# Protocol: as §3
# as §3, with “receptors” for “receptors tested”, “UK). K1” for “UK). Ki”, “calculated (Y.” for “calculated using the equation of”, “Cheng &” for “Cheng and”, “Prusoff 1973)” for “Prusoff (1973, Biochem. Pharmacol 22:23099-3108) derived”
# D1/D2 [14] = experiment: D1/D2 affinity ratio; format: binding; conditions: present data
# Protocol: as §3, with “receptors” for “receptors tested”, “UK). K1” for “UK). Ki”, “calculated (Y.” for “calculated using the equation of”, “Cheng &” for “Cheng and”, “Prusoff 1973)” for “Prusoff (1973, Biochem. Pharmacol 22:23099-3108) derived”
# rats [15] = experiment: Temporal order recognition (radial arm maze); conditions: 1.0 mg/kg govadine isomers, 5.0 mg/kg clozapine
# Protocol: The task exploits a rat's natural preference for novel locations. Each animal received 3 separate trials where access to two arms of an eight arm radial arm maze was granted. During the first trial, two arms were selected at random for exploration, and animals were allowed to explore these arms for 2 min After this time, they were taken off the maze and returned to their home cage. 1 hour later they were placed back on the maze and two new arms were randomly selected for 2 min of exploration.
# Time spent in each arm (recent and old) was recorded as well as total distance traveled and the total number of arm entries in Noldus EthoVision 3.1 (Leesburg, Va.).
# [16] = microdialysis, nucleus accumbens
# [17] = microdialysis, prefrontal cortex
compound,measurement,setting,value
"COc1cc2c(cc1O)[C@@H]1Cc3ccc(O)c(OC)c3CN1CC2 [l-Stepholidine, l-stepholidine]",Ki,D2L [1],85 nM
same,AIL (ED50),rats [2],2.36* mg/kg
same,Ki,D1 [3],13 nM
same,CAR (ED50),rats [4],0.27 mg/kg
same,D1/D2,"D1/D2 [5]; Natesan et al., 2008",0.850*
same,D1/D2,"D1/D2 [5]; Xu, S. X. et al., 1989",0.150**
same,Catalepsy (ED50),rats [6],3.6 mg/kg
COc1cc2c(cc1O)CN1CCc3cc(OC)c(O)cc3C1C2 (racemic) [dl-govadine],ED50 at 45 min,Catalepsy (bar test),4.7 mg/kg
same,catalepsy observed,rats [7]; 1.0 mg/kg SC,mild motor suppression
same,catalepsy observed,rats [7]; 6.0 mg/kg SC,Strong and extended catalepsy
same,catalepsy (immobilized contact time),"rats [7]; SC, across doses tested",dose-dependent increase
same,DA efflux in NAc and mPFC compared to control,"rats [8]; 1 mg/kg, Example 15",enhanced DA efflux
same,5-HIAA in NAc,rats [8]; [16],No increase
same,DOPAC in NAc,rats [8]; [16],Increases
same,HVA in NAc,rats [8]; [16],Increases
same,dopamine level in NAc,rats [8]; [16],increased
same,5-HIAA in PFC,rats [8]; [17],No increase
same,DOPAC in PFC,rats [8]; [17],Increases
same,HVA in PFC,rats [8]; [17],Increases
same,dopamine level in PFC,rats [8]; [17],increased
same,ED50 at […],rats [9],1.7 mg/kg
same,ED50,"rats [10]; Rattus norvegicus, sc, 20 min, read-out: CAR (ED50), present data, SC, 20 min post-injection",0.723 mg/kg
same,escapes in CAR,"rats [10]; SC, 100 CS-US pairings",increase in escapes
same,suppression of conditioned avoidance responding (avoidances),"rats [10]; SC, 100 CS-US pairings",dose-dependently suppressed avoidances
same,CAR (ED50),"rats [10]; present data, SC, 20 min post-injection",0.720# mg/kg
same,effect of repeated treatment in CAR,"rats [10]; repeated treatment, FIG. 14",Neither of these effects was observed
same,latent inhibition in non-sensitized animals,rats [11]; 1.0 mg/kg SC before each pre-exposure session,no subsequent effect on LI
same,latent inhibition in d-AMPH sensitized animals,"rats [11]; 1.0 mg/kg SC before each pre-exposure, 5-week escalating d-AMPH",restored LI to levels observed in controls
same,latent inhibition in acute d-AMPH-treated animals,"rats [11]; treatment before each pre-exposure, 1.0 mg/kg d-AMPH before conditioning",restored LI
same,Ki,D1 [12],6.7 nM
same,Ki,D2L [13],283 nM
same,D1/D2,D1/D2 [14],0.023#
"CN1CCN(C2=Nc3cc(Cl)ccc3Nc3ccccc32)CC1 [Clozapine, reference compound]",Arm Entries,rats [15]; 45 min. delay,7.0 ± 1.9
same,Distance Travelled,rats [15]; 45 min. delay,1286 ± 177
same,Arm Entries,rats [15]; 4 hr. delay,6.0 ± 1.6
same,Distance Travelled,rats [15]; 4 hr. delay,1098 ± 74
